Where two headings read alike, the source gives them in different places.
What was measured:
endogenous Oct4 = test: RT-PCR of endogenous Oct4 mRNA in treated MEFs; type: cell-based, mouse; settings: versus vehicle
Description: MEFs were treated with vehicle control or OAC 1 to test whether OAC 1 activates endogenous Oct4 and Nanog gene transcription. […] Oct4, Sox2, and Nanog are central to the transcriptional regulatory hierarchy for ESC pluripotency, forming the core transcriptional regulatory circuitry in ESCs (37). […] OAC1 activated Sox2 mRNA expression, along with Oct4 and Nanog (FIG. 61).
(§1) RT-PCR analysis: Total RNA was purified with Trizol reagent (Invitrogen). Reverse transcription was performed with 1 μg of RNA using Omniscript® Reverse Transcription Kit (Qiagen). Quantitative PCR was performed using iTaq SYBR Green Supermix with Rox (Bio-rad) in Applied Biosystem Step one plus real-time PCR system. […]

human Oct4 promoter = test: Oct4-luc luciferase reporter assay (stably transfected CV1 cells); type: cell-based; settings: for fold induction at 1 µM: compound at 1 μM, Oct4-luc cells, triplicates
luciferase = luciferase (Photinus pyralis, UniProt P08659); settings: cited from earlier work
[1] = tested on: β-catenin-responsive reporter gene Topflash; test: Topflash luciferase reporter assay in CV1 cells (Wnt signaling); type: cell-based; settings: 1 μM OAC1 or 2 μM BIO, 48 hr
Description: Whether OAC1 regulates major signaling pathways that are critical for embryonic stem cell pluripotency was investigated. […] CV1 cells were transfected with the β-catenin-responsive reporter gene Topflash, and the transfected cells were treated with vehicle control or OAC1 (FIG. 6C). The glycogen synthase kinase 3β (GSK3β) inhibitor BIO was included as a positive control (42).
AzaC, 25 μg/ml Vc, 10 nM Am580, 5 μM tranylcypromine, and 0.5 mM VPA. Luciferase reporter assays were performed as described (51) 24 hr after compound treatment or at indicated time points. For Topflash reporter assays, 0.2 μg β-catenin-responsive Topflash reporter gene plasmid was introduced into CV1 cells using trasfection (Bio-Rad). Compounds were added 6 hr after transfection. Luciferase activity was measured 48 hr after compound treatment using the Glo Luciferase Assay System (Promega).

p21 = test: RT-PCR of p21 expression in treated MEFs; type: cell-based, mouse; settings: MEFs treated for two days
Description: Inhibition of the p53-p21 signaling increased reprogramming efficiency (26, 28-31, 41). To investigate whether compound OAC1 enhanced reprogramming efficiency by affecting this pathway, MEFs were treated with vehicle control or OAC1 and determined the expression level of p53 and p21 in the treated cells.
as §1

Chain of luciferase (P08659 whole entry): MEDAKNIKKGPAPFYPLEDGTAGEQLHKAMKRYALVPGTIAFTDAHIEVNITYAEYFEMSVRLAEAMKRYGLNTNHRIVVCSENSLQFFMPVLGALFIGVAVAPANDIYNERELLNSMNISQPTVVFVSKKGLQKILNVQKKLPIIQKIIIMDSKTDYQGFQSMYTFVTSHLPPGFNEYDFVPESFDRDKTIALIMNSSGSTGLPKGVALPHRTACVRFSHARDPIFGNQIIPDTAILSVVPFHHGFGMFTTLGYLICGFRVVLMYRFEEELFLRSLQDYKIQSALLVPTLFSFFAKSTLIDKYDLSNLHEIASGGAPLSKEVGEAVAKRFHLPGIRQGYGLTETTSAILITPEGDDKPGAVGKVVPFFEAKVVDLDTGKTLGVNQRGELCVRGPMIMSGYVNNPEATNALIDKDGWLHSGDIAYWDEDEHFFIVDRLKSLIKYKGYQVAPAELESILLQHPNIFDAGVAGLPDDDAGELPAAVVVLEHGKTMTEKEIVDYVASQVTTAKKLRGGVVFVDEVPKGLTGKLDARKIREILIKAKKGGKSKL

O=C(Nc1cc2cc[nH]c2cn1)c1ccccc1 [OAC1, N-(1H-6-azaindol-5-yl)benzamide]
endogenous Oct4 mRNA expression (endogenous Oct4): activated | activation of Oct4-luc at 50 nM (human Oct4 promoter; 50 nM, two days after compound treatment): activated Oct4-luc considerably | fold induction at 1 µM (human Oct4 promoter; Homo sapiens, CV-1, 24 h, read-out: Oct4-luc Activity): ≥ 1.8 | induction of Oct4-luc, comparison with known reprogramming enhancers (in words) (human Oct4 promoter; OAC1 1 μM, BIO 2 μM, BIX 2 μM, AzaC 2 μM, Vc 25 μg/ml, Am580 10 nM, tranylcypromine 5 μM, VPA 0.5 mM, two days): potent induction | fold induction at 1 µM (human Oct4 promoter; read-out: Oct4-luc fold Induction): 5 | concentration of highest induction of Oct4-luc (human Oct4 promoter; dose response 50 nM to 1 μM, 2 to 7 days): 1 µM | activation of human Oct4 reporter (in words) (human Oct4 promoter; triplicate luciferase reporter assays): considerable activation | inhibition in ATLAS assay (luciferase): no inhibition | effect on Topflash reporter activity [1]: no effect | p21 expression level versus DMSO (p21): no significant difference
